One may read the melting point as the temperature of the solid-liquid transition.

Where a name gives a salt, the structure may show the parent alone.

On to `COc1c(C=NO)ccc(Cl)c1Cl` (as salt: HCl) [Compound 1f, O-Methyl 2-formyl-5,6-dichlorophenol oxime], for which the melting point was 82 to 83 °C.

In turn, `CC(=O)c1ccccc1NC(C)=NO` [Compound 1i, N-(2-acetylphenyl)acetamide oxime] had a melting point of 99 to 100 °C.

`ON=Cc1ccc(Cl)c(Cl)c1OCc1ccccc1` (as salt: HCl) [Compound 1e, O-Benzyl 2-formyl-5,6-dichlorophenol oxime] had a melting point of 64 to 69 °C.

(Values after patent US6458846B1, “Ion channel modulating agents” (Neurosearch A/S, priority 1998, dated 2002).)
